Literature values, collected in patent publication US20100179202A1, “ORALLY DISINTEGRATING COMPOSITION OF ZOLMITRIPTAN” (AJANTA PHARMA LIMITED., priority 2009, published 2010).

Conditions: background description of the drug substance

solubility in water: readily soluble in water
SMILES: CN(C)CCc1c[nH]c2ccc(C[C@H]3COC(=O)N3)cc12 [Zolmitriptan, (4S)-4-{[3-(2-dimethylaminoethyl)-1H-indol-5-yl]methyl}-1,3-oxazolidin-2-one]
